Measured values taken from patent publication US8053581B2, “Trisubstituted thiazole compounds, preparations methods, pharmaceutical compositions and medicals uses thereof” (Institute of Pharmacology and Toxicology Academy of …, priority 2006, dated 2011).

Tests used:
[1] = biological target: T1, CETP (Homo sapiens, UniProt P11597); experiment: Determination of CETP inhibition activity (fluorescent donor/acceptor transfer); assay type: biochemical; conditions: Concentration of compounds 500 μM; read-out: CETP inhibition activity Inhibition rate(%)
T1 sequence (P11597 18-493): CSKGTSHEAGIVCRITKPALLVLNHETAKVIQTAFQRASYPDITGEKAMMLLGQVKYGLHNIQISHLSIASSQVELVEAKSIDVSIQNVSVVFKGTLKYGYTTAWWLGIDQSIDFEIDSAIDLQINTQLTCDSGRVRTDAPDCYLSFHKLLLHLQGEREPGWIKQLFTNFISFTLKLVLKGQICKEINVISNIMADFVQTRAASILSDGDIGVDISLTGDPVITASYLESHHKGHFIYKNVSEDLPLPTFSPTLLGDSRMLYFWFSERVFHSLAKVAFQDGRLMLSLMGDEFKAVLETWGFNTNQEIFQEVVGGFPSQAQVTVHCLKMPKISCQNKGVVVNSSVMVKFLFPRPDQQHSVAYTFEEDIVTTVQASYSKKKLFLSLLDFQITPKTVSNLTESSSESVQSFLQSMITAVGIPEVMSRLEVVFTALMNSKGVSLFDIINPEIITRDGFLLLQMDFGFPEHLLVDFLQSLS
Description: A mixture containing 3 μl of a donor, 9 μl of an acceptor (250 μg protein), 3 μl of CETP solution and 85 μl of an analytic buffer, 10 mM Tris, 0.15 M NaCl and 2 mM EDTA, pH 7.4 was incubated at 37° C. for 0.5 hours, the fluorescence intensity was determined on Victor 3 double illuminometer/fluorescence counter (Perkin Elmer) carrying […] light wave length.

[2] = biological target: T2, PLTP (Homo sapiens, UniProt P55058); experiment: Determination of PLTP inhibition activity (radiolabelled phospholipid liposome to HDL transfer with plasma); assay type: biochemical; conditions: for inhibition at 150 µM: Concentration of compounds 150 μM; for inhibition at 150 µM / inhibition at 250 µM: read-out: PLTP inhibition activity Inhibition rate(%); for inhibition at 250 µM: Concentration of compounds 250 μM
T2 construct: from tissue
T2 sequence (P55058 18-493, species assumed): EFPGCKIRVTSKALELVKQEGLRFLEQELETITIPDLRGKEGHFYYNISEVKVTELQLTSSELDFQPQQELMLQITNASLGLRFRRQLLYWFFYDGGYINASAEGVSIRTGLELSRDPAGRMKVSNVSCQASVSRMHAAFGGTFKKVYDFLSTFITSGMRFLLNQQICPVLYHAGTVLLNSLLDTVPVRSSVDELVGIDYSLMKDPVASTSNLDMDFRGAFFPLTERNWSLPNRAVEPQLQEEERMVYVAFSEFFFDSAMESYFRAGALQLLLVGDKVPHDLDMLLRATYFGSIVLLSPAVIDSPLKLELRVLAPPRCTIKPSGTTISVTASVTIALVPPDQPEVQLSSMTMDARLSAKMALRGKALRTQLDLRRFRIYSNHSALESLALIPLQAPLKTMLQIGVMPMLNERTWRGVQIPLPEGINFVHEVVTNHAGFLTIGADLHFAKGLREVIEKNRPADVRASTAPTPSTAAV
Description: 30 μl (about 1000 cpm/μl) phospholipids liposome, 30 μl HDL ([…]), 337 μl TSE and 3 μl plasma were mixed, incubated in 37° C. water-bath for 1 hour, and then added 300 μl of a settling solution (50 ml solution preparation: 5.36 ml 5N NaCl, 9.075 ml 2M MnCl2 and 46 mg liver phospholipid were mixed, added water to 50 ml), the solution was stood at room temperature for 10 minutes, rotated at high speed for 10 minutes (to remove phospholipids liposome), 500 μl of the supernatant was sampled and counted. PLTP activity (cpm/h/3 μl)=sample cpm-background cpm.

melting point [°C]	inhibition at 500 µM [1] [%]	inhibition at 150 µM [2] [%]	IC50 [2] [µM]	inhibition at 250 µM [2] [%]	Compound
109 to 110	80.4	0	–	–	O=C(Nc1nc(-c2ccc(O)cc2)c(Cc2ccccc2)s1)c1ccc(Cl)cc1 [Example 8, N-[5-benzyl-4-(4-hydroxy-phenyl)-thiazol-2-yl]-4-chloro-benzamide]
240 to 241	19.4	–	70	79.8	O=C(Nc1nc(-c2ccc(O)cc2)c(Cc2ccccc2)s1)c1ccc(O)c(O)c1 [Example 19, N-[5-benzyl-4-(4-hydroxy-phenyl)-thiazol-2-yl]-3,4-dihydroxy-benzamide]
199 to 201	52.8	–	–	11.5	COc1ccc(-c2nc(N)sc2Cc2ccc(F)cc2)cc1 [Example 21, 5-(4-fluoro-benzyl)-4-(4-methoxy-phenyl)-thiazol-2-ylamine]
276 to 278	0	–	75	100	O=C(Nc1nc(-c2ccc(F)cc2)c(Cc2ccc([N+](=O)[O-])cc2)s1)c1ccc(O)c(O)c1 [Example 31, N-[4-(4-fluoro-phenyl)-5-(4-nitro-benzyl)-thiazol-2-yl]-3,4-dihydroxy-benzamide]
–	0	–	75	100	O=C(Nc1nc(-c2ccccc2)c(Cc2ccc([N+](=O)[O-])cc2)s1)c1ccc(O)c(O)c1 [Example 32, 3,4-dihydroxy-N-[5-(4-nitro-benzyl)-4-phenyl-thiazol-2-yl]-benzamide]
154 to 155	9.2	–	100	73.2	O=C(Nc1nc(-c2ccc(O)cc2)c(Cc2ccc(F)cc2)s1)c1ccc(O)c(O)c1 [Example 33, N-[5-(4-fluoro-benzyl)-4-(4-hydroxy-phenyl)-thiazol-2-yl]-3,4-dihydroxy-benzamide]
195 to 196	30.4	–	100	67.6	O=C(Nc1nc(-c2ccc(O)cc2)c(Cc2ccc([N+](=O)[O-])cc2)s1)c1ccc(O)c(O)c1 [Example 34, 3,4-dihydroxy-N-[4-(4-hydroxy-phenyl)-5-(4-nitro-benzyl)-thiazol-2-yl]-benzamide]
217 to 219	88	11.5	–	–	O=C(Nc1nc(-c2ccc(O)cc2)c(Cc2ccccc2)s1)c1ccc(O)cc1O [Example 38, N-[5-benzyl-4-(4-hydroxy-phenyl)-thiazol-2-yl]-2,4-dihydroxy-benzamide]
124 to 125	71.6	0	–	–	COc1ccc(C(=O)Nc2nc(-c3ccc(O)cc3)c(Cc3ccccc3)s2)cc1 [Example 40, N-[5-benzyl-4-(4-hydroxy-phenyl)-thiazol-2-yl]-4-methoxy-benzamide]
245 to 246	44.1	89.4	15	–	O=C(Nc1nc(-c2ccc(O)cc2)c(Cc2ccccc2)s1)c1cc(O)c(O)c(O)c1 [Example 41, N-[5-benzyl-4-(4-hydroxy-phenyl)-thiazol-2-yl]-3,4,5-trihydroxy-benzamide]
118 to 119	79.8	0	–	–	COc1ccc(-c2nc(N)sc2CC2CCCCC2)cc1 [Example 47, 5-cyclohexylmethyl-4-(4-methoxy-phenyl)-thiazol-2-ylamine]
133 to 134	6	81.6	35	–	O=C(Nc1nc(-c2ccc(O)cc2)c(CC2CCCCC2)s1)c1ccc(O)c(O)c1 [Example 49, N-[5-cyclohexylmethyl-4-(4-hydroxy-phenyl)-thiazol-2-yl]-3,4-dihydroxy-benzamide]
238 to 239	20.9	–	18	100	O=C(Nc1nc(-c2ccc(O)cc2)c(CC2CCCCC2)s1)c1cc(O)c(O)c(O)c1 [Example 51, N-[5-cyclohexylmethyl-4-(4-hydroxy-phenyl)-thiazol-2-yl]-3,4,5-trihydroxy-benzamide]
262 to 263	85.9	–	–	10.7	Cc1sc(NC(=O)c2cc(O)c(O)c(O)c2)nc1-c1ccc(O)cc1 [Example 55, 3,4,5-trihydroxy-N-[4-(4-hydroxy-phenyl)-5-methyl-thiazol-2-yl]-benzamide]
–	58.7	–	75	71.9	Cc1sc(NC(=O)c2ccc(O)c(O)c2)nc1-c1ccc(O)cc1 [Example 56, 3,4-dihydroxy-N-[4-(4-hydroxy-phenyl)-5-methyl-thiazol-2-yl]-benzamide]
143 to 144	75.8	–	–	24	COc1ccc(-c2nc(N)sc2CCc2ccccc2)cc1 [Example 57, 4-(4-methoxy-phenyl)-5-phenylethyl-thiazol-2-ylamine]
208 to 209	0	–	35	97	O=C(Nc1nc(-c2ccc(O)cc2)c(CCc2ccccc2)s1)c1ccc(O)c(O)c1 [Example 60, 3,4-dihydroxy-N-[4-(4-hydroxy-phenyl)-5-phenylethyl-thiazol-2-yl]-benzamide]
118 to 119	65.4	–	–	15.3	CCCCc1sc(N)nc1-c1ccc(OC)cc1 [Example 62, 4-(4-methoxy-phenyl)-5-n-butyl-thiazol-2-ylamine]
150 to 151	–	–	–	–	CCCCc1sc(NC(=O)c2ccc(OC)c(OC)c2)nc1-c1ccc(OC)cc1 [Example 63, N-[5-n-butyl-4-(4-methoxy-phenyl)-thiazol-2-yl]-3,4-dimethoxy-benzamide]
197 to 198	–	–	–	–	CCCCc1sc(NC(=O)c2cc(OC)c(OC)c(OC)c2)nc1-c1ccc(OC)cc1 [Example 64, N-[5-n-butyl-4-(4-methoxy-phenyl)-thiazol-2-yl]-3,4,5-trimethoxy-benzamide]
189 to 190	0	–	75	93.4	CCCCc1sc(NC(=O)c2ccc(O)c(O)c2)nc1-c1ccc(O)cc1 [Example 65, N-[5-n-butyl-4-(4-hydroxy-phenyl)-thiazol-2-yl]-3,4-dihydroxy-benzamide]
119 to 120	27.3	–	75	100	CCCCc1sc(NC(=O)c2cc(O)c(O)c(O)c2)nc1-c1ccc(O)cc1 [Example 66, N-[5-n-butyl-4-(4-hydroxy-phenyl)-thiazol-2-yl]-3,4,5-trihydroxy-benzamide]
182 to 183	–	–	–	–	COc1ccc(-c2nc(N(S(=O)(=O)c3ccc(C)cc3)S(=O)(=O)c3ccc(C)cc3)sc2Cc2ccccc2)cc1 [Example 67, N-[5-benzyl-4-(4-methoxy-phenyl)-thiazol-2-yl]-N-p-tolylsulfonyl-p-tolylsulfonamide]
142 to 143	–	–	–	–	COc1ccc(-c2nc(NC(=O)CCc3ccc(OC)c(OC)c3)sc2Cc2ccccc2)cc1 [Example 68, N-[5-benzyl-4-(4-methoxy-phenyl)-thiazol-2-yl]-3-(3,4-dimethoxy-phenyl)-propanamide]
119 to 120	–	–	–	–	COc1ccc(-c2nc(N(CCO)CCO)sc2Cc2ccccc2)cc1 [Example 73, 2-[[5-benzyl-4-(4-methoxy-phenyl)-thiazol-2-yl]-(2-hydroxy-ethyl)-amino]-ethanol]
222 to 223	–	–	–	–	Oc1ccc(-c2nc(N3CCNCC3)sc2Cc2ccccc2)cc1 [Example 75, 4-(5-benzyl-2-piperazin-4-yl-thiazol-4-yl)-phenol]
167 to 168	–	–	–	–	OCCN(CCO)c1nc(-c2ccc(O)cc2)c(Cc2ccccc2)s1 [Example 76, 4-(5-benzyl-2-[bis-(2-hydroxy-ethyl)-amino]-thiazol-4-yl)-phenol]
177 to 178	–	–	–	–	Oc1ccc(-c2nc(CCc3ccc(O)c(O)c3)sc2Cc2ccccc2)cc1 [Example 78, 4-{2-[5-benzyl-4-(4-hydroxy-phenyl)-thiazol-2-yl]-ethyl}-benzene-1,2-diol]
